# Calls of active or inactive are those of the source. The calls are words filed in the database; no cut-off is given here.
# Columns and labels:
# [1] = biological target: T1, Peroxisome proliferator-activated receptor alpha (Homo sapiens, UniProt Q07869); assay: Binding affinity against Peroxisome Proliferator activated receptor alpha (PPAR alpha); Not active
# T1 sequence (Q07869 whole entry): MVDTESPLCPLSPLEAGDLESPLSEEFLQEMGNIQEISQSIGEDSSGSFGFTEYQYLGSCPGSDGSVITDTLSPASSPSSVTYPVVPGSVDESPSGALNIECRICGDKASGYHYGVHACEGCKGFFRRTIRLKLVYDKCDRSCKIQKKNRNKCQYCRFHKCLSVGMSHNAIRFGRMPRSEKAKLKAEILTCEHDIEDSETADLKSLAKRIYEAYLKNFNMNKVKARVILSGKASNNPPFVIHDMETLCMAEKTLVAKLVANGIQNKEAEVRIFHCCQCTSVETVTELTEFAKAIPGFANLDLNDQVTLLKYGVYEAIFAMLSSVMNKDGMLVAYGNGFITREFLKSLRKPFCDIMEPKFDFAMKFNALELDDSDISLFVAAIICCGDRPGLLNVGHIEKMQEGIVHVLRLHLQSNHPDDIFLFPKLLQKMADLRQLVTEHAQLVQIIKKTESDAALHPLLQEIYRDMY
# [2] = biological target: T2, Peroxisome proliferator-activated receptor gamma (Homo sapiens, UniProt P37231)
# T2 sequence (P37231 whole entry): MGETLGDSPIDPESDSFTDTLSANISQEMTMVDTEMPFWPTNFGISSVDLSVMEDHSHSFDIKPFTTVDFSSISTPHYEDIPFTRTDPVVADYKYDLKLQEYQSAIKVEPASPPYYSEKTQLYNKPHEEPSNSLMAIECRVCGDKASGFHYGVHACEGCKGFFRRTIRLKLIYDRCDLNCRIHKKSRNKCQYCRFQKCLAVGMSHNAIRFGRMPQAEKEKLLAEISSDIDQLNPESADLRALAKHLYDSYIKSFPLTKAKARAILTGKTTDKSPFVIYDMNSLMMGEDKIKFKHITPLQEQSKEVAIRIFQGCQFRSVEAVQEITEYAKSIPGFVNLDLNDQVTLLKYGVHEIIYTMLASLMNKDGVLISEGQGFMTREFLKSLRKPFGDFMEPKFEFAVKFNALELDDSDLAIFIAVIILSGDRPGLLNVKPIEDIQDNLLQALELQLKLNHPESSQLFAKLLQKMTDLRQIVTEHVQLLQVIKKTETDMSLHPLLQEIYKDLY
# [3] = biological target: T2, Peroxisome proliferator-activated receptor gamma; remark: listed apart in the source
# [4] = biological target: T3, Peroxisome proliferator-activated receptor delta (Homo sapiens, UniProt Q03181)
# T3 sequence (Q03181 whole entry): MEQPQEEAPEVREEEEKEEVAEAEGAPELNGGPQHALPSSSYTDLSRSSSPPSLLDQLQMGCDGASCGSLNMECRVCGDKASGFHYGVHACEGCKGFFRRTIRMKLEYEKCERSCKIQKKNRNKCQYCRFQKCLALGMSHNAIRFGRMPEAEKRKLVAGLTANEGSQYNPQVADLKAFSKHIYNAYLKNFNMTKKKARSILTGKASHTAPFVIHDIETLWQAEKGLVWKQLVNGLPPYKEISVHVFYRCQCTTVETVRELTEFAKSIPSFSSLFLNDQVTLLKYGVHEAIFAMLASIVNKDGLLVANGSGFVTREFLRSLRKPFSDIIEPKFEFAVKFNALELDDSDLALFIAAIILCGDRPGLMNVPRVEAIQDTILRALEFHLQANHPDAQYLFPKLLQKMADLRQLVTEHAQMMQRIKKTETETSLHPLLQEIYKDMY
# [5] = biological target: T4, Peroxisome proliferator-activated receptor gamma (Homo sapiens) (UniProt P37231); assay: Transcriptional activation of peroxisome proliferator activated receptor gamma activity; Inactive at 10e-4 M; assay type: functional
# T4 sequence (whole entry): T2 sequence (P37231 whole entry)
# [6] = biological target: T2, Peroxisome proliferator-activated receptor gamma; assay: Inhibitory concentration of the PPAR gamma)
# [7] = Pharmacokinetic property (total body clearance) in rat; assay type: ADME, organism-based; details: in vivo, read-out: CLtotal
# [8] = Pharmacokinetic property (oral bioavailability) in rat (dose given as a solution); assay type: ADME, organism-based; details: in vivo
# [9] = biological target: T2, Peroxisome proliferator-activated receptor gamma; assay: Binding affinity against human Peroxisome proliferator activated receptor gamma (PPAR gamma)
# [10] = Pharmacokinetic property (oral bioavailability) in rat (dose given as a suspension); assay type: ADME, organism-based; details: in vivo
# [11] = Pharmacokinetic property (half life) in rat; assay type: ADME, organism-based; details: in vivo
# [12] = biological target: T4, Peroxisome proliferator-activated receptor gamma (Homo sapiens); assay: Binding affinity against Peroxisome proliferator activated receptor gamma (PPAR gamma); Inactive at 10e-4 M
Ki [1],Ki [2] [nM],EC50 [3] [nM],Ki [4],SMILES,also measured
Not Active,> 10000,> 10000,Not Active,O=C(O)Cc1ccc2[nH]c(-c3ccccc3)c(-c3ccccc3)c2c1,–
Not Active,–,> 10000,Not Active,O=C1CSC(=O)N1Cc1ccc2[nH]c(-c3ccccc3)c(CCc3ccccc3)c2c1,–
Not Active,–,–,Not Active,O=C(O)Cc1ccc2[nH]c(-c3ccccc3)cc2c1,Log EC50 [5]: inactive
Not Active,47.9,43.7,Not Active,COc1ccc(CCc2c(-c3ccccc3)[nH]c3ccc(CC(=O)O)cc23)cc1,IC50 [6]: 50 nM; clearance [7]: 3 mL/min/kg; bioavailability [8]: 78%; Ki [9]: 50 nM; bioavailability [10]: 73%; half-life [11]: 3.8 h
Not Active,490,339,Not Active,O=C(O)Cc1ccc2[nH]c(-c3ccc(F)cc3)c(CCc3ccc(F)cc3)c2c1,–
Not Active,–,> 10000,Not Active,Cn1c(-c2ccccc2)c(CCc2ccccc2)c2cc(OCC(=O)O)ccc21,–
Not Active,–,7080,Not Active,CCCc1c(-c2ccccc2)[nH]c2ccc(CC(=O)O)cc12,–
Not Active,> 10000,> 10000,Not Active,O=C(O)Cc1ccc2[nH]cc(CCc3ccccc3)c2c1,–
Not Active,550,5620,Not Active,Cn1c(-c2ccccc2)c(CCc2ccccc2)c2cc(CC(=O)O)ccc21,–
Not Active,–,> 10000,Not Active,CCCc1c(-c2ccccc2)[nH]c2ccc(C(=O)O)cc12,–
Not Active,–,309,Not Active,O=C(O)Cc1ccc2[nH]c(-c3ccccc3)c(CCc3ccccc3)c2c1,–
Not Active,–,> 10000,Not Active,O=C(O)Cc1ccc2[nH]c(-c3ccccc3)c(Cc3ccccc3)c2c1,Log Ki [12]: inactive
Not Active,–,3020,Not Active,O=C(O)CCc1ccc2[nH]c(-c3ccccc3)c(CCc3ccccc3)c2c1,–

SMILES,Ki [1],Ki [2] [nM],EC50 [3] [nM],Ki [4],also measured
Cc1c(C)c2c(c(C)c1O)CCC(C)(COc1ccc(CC3SC(=O)NC3=O)cc1)O2 (stereo unspecified) [TROGLITAZONE],Not Active,–,–,Not Active,–
CN(CCOc1ccc(CC2SC(=O)NC2=O)cc1)c1ccccn1 (stereo unspecified) [ROSIGLITAZONE],Not Active,–,–,–,–
CCc1ccc(CCOc2ccc(CC3SC(=O)NC3=O)cc2)nc1 (stereo unspecified) [PIOGLITAZONE],Not Active,–,–,Not Active,–

# From ChEMBL document CHEMBL1132133, “Synthesis and biological activity of a novel series of indole-derived PPARgamma agonists” (Bioorg Med Chem Lett, 1999)
